Experimental data: patent US6818215B2, “Antibodies to senescent cell-derived inhibiters of DNA synthesis” (priority 1991, dated 2004)

Legend:
[1] = test system: SV40 early promoter with three E2F binding sites (SV/E2F); experiment: CAT reporter transcription assay, SV/E2F-CAT; assay type: cell-based; details: A31 cells
Method: The effect of the human SDI-1 on transcription driven by two E2F-responsive promoters was determined. Proliferating A31 cells were transfected with an SDI-1 expression vector in which the SDI-1 cDNA was driven by the strong constitutive cytomegalovirus early promoter (CMV) together with a reporter vector in which the chloramphenicol acetyltransferase (CAT) gene was driven by either the hamster dihydrofolate reductase (DHFR) promoter or the human cdc2 promoter (cdc2-CAT). A31 cells are Balb/c murine 3T3 fibroblasts whose origin and growth properties have been described (Lu, K. et al., Molec. Cell. Biol. 9:3411-3417 (1989); Dimri, G. P et al., J. Biol. Chem. 269:16180-16186 (1994), herein incorporated by reference). Cells were transfected with 2 μg of expression vectors, reporters vectors (for transactivation) and the CMV-β-gal identification/normalization vector using Lipofectamine (Gibco-BRL), as described by Dimri, G. P et al. (J. Biol. Chem. 269:16180-16186 (1994), herein incorporated by reference), The vector backbone was added to the mixture as needed to equalize the amount of transfected DNA. […]
To more critically ascertain whether the inhibition of transcription by SDI-1 was E2F-dependent, three E2F binding sites were inserted into the SV40 early promoter and the effect of CMV-SDI-1 on CAT activity driven by this modified promoter (SV/E2F) was determined. […]

Fibroblasts (L-929) = experiment: GST-SDI-1 fusion protein, thymidine incorporation; assay type: cell-based, Murine; details: 50 μg/ml
Method: (§1) As indicated above, SDI-1 has the capacity to suppress the proliferation of tumor cells. […] In the experiment, 5×10^3 cells were plated overnight at 37° C. (only for adherent cells) and then incubated with the SDI fusion protein. After 48 hours at 37° C., cells were pulsed with thymidine for 24 hours and then harvested. The results of this experiment are shown in Table 8; the thymidine incorporation by untreated cells was expressed as 100%. all determinations were made in quadruplicate.

[2] = test system: SV40 transformed cell line GM639; experiment: Transient transfection of SDI-1, inhibition of DNA synthesis; assay type: cell-based
From the text: (§2) This provides further evidence that SDI-1 behaves like the inhibitor previously detected in senescent cells.

SUSMI = experiment: as above; assay type: cell-based
From the text: as §2

Breast (T-47 D) = experiment: GST-SDI-1 fusion protein, thymidine incorporation; assay type: cell-based, human
Method: as §1

[3] = test system: Lung adenocarcinoma (A-549); experiment: GST-SDI-1 fusion protein, thymidine incorporation; assay type: cell-based, human
Method: as §1

Hepatocellular (Hep G2) = experiment: GST-SDI-1 fusion protein, thymidine incorporation; assay type: cell-based, human
Method: as §1

Glial (U-251) = experiment: GST-SDI-1 fusion protein, thymidine incorporation; assay type: cell-based, human
Method: as §1

Burkitt Lymphoma (Daudi) = experiment: GST-SDI-1 fusion protein, thymidine incorporation; assay type: cell-based, human; details: 30 μg/ml
Method: as §1

A31 cells = experiment: DNA synthesis in transfected (β-galactosidase positive) cells, radiolabeled nuclei; assay type: cell-based, murine
Method: (§3) The effect of the human SDI-1 on transcription driven by two E2F-responsive promoters was determined. Proliferating A31 cells were transfected with an SDI-1 expression vector in which the SDI-1 cDNA was driven by the strong constitutive cytomegalovirus early promoter (CMV) together with a reporter vector in which the chloramphenicol acetyltransferase (CAT) gene was driven by either the hamster dihydrofolate reductase (DHFR) promoter or the human cdc2 promoter (cdc2-CAT). A31 cells are Balb/c murine 3T3 fibroblasts whose origin and growth properties have been described (Lu, K. et al., Molec. Cell. Biol. 9:3411-3417 (1989); Dimri, G. P et al., J. Biol. Chem. 269:16180-16186 (1994), herein incorporated by reference). Cells were transfected with 2 μg of expression vectors, reporters vectors (for transactivation) and the CMV-β-gal identification/normalization vector using Lipofectamine (Gibco-BRL), as described by Dimri, G. P et al. (J. Biol. Chem. 269:16180-16186 (1994), herein incorporated by reference), The vector backbone was added to the mixture as needed to equalize the amount of transfected DNA. Seventy-two hours later, the cells were lysed and assayed for chloramphenicol acetyl transferase (CAT) and β-galactosidase activity. Both DHFR and cdc2 were expressed by proliferating cells, largely due to E2F-mediated transcription that is dependent on E2F binding sites in the 5′ regulatory regions of these genes (Slansky, J. E. et al., Molec. Cell. Biol. 13:1610-1618 (1993); Dalton, S., EMBO J. 11:1797-1804 (1992)).
These mutants included a naturally occurring SDI-1 variant (p21pm) in which the serine at amino acid 31 was replaced by an arginine. This polymorphism has been detected in approximately 10% of normal human cells thus far examined, and appears to result in a slight reduction in the antiproliferative properties of SDI-1 (Table 17). A SDI-1 expression vector for this allele (CMV-p21pm) was compared with CMV-SDI-1 for ability to inhibit DNA synthesis and E2F-mediated transactivation in proliferating A31 cells. […]

SV 40 early promoter = experiment: CAT reporter transcription assay, SV-CAT; assay type: cell-based
Method: as §3
In sharp contrast to the response of the DHFR and cdc2 promoters, CMV-SDI-1 had little or no effect on reporter activity driven by either the SV 40 early promoter (SV-CAT or the c-fos promoter (fos-CAT) (Table 16). Neither the SV40 early genes nor c-fos has been reported to be E2F-responsive.

[4] = test system: Human umbilical vein endothelial cells; experiment: GST-SDI-1 fusion protein, thymidine incorporation; assay type: cell-based
Method: as §1

SDI-1: senescent cell derived inhibitor of DNA synthesis, 164 amino acid protein, SEQ ID NO:2
Transcription (Normalized) % Activity [1]: 50% | Transcription (Normalized) % Inhibition [1]: 50% | Relative Cell (% of Control) (Fibroblasts (L-929)): 4 ± 1 % of Control | inhibition (DNA synthesis) [2]: < 20% | inhibition (DNA synthesis) (SUSMI): 40% | Relative Cell (% of Control) (Breast (T-47 D); 30 μg/ml): 2 ± 0 % of Control | Relative Cell (% of Control) (Breast (T-47 D); 50 μg/ml): 2 ± 0 % of Control | Relative Cell (% of Control) ([3]; 30 μg/ml): 40 ± 1 % of Control | Relative Cell (% of Control) ([3]; 50 μg/ml): 25 ± 3 % of Control | Relative Cell (% of Control) (Hepatocellular (Hep G2); 30 μg/ml): 21 ± 3 % of Control | Relative Cell (% of Control) (Hepatocellular (Hep G2); 50 μg/ml): 12 ± 2 % of Control | Relative Cell (% of Control) (Glial (U-251); 30 μg/ml): 66 ± 4 % of Control | Relative Cell (% of Control) (Glial (U-251); 50 μg/ml): 35 ± 2 % of Control | Relative Cell (% of Control) (Burkitt Lymphoma (Daudi)): 3 ± 0 % of Control | inhibition (antiproliferative effect) (A31 cells; A31 cells): 65-75% | DNA Synthesis % LN (A31 cells; percentage of transfected cells with radiolabeled nuclei): 17% | DNA Synthesis % Inhibition (A31 cells; proliferating A31 cells): 75% | % Activity (SV 40 early promoter; SDI-1 1.0 μg): 103% | % Inhibition (SV 40 early promoter; SDI-1 1.0 μg): 0% | Normalized CAT Activity (SV 40 early promoter; SDI-1 1.0 μg): 3743 counts per minute | % Activity (SV 40 early promoter; SDI-1 2.0 μg): 106% | % Inhibition (SV 40 early promoter; SDI-1 2.0 μg): 0% | Normalized CAT Activity (SV 40 early promoter; SDI-1 2.0 μg): 3828 counts per minute | % Activity (SV 40 early promoter; SDI-1 4.0 μg): 93% | % Inhibition (SV 40 early promoter; SDI-1 4.0 μg): 7% | Normalized CAT Activity (SV 40 early promoter; SDI-1 4.0 μg): 3366 counts per minute | Relative Cell (% of Control) ([4]; 30 μg/ml): 5 ± 1 % of Control | Relative Cell (% of Control) ([4]; 50 μg/ml): 2 ± 1 % of Control
